According to article PMC12499452, “The Multitarget Compound ZLY032 Achieves Treatment of Chronic Wounds” (Advanced Science, 2025):

Assays:
[1] = molecular target: T1, FFA1 (Homo sapiens, UniProt O14842); experiment: cellular thermal shift assay (CETSA), Western blot; format: cell-based; conditions: HEK293T cells
T1 construct: gene FFAR1; apparently endogenous in HEK293T cells (no transfection told); Western blot read-out

[2] = molecular target: T2, PPARδ (Homo sapiens, UniProt Q03181); experiment: cellular thermal shift assay (CETSA), Western blot; format: cell-based; conditions: HEK293T cells
T2 construct: gene PPARD; apparently endogenous in HEK293T cells (no transfection told); Western blot read-out
T2 sequence (Q03181 1-441): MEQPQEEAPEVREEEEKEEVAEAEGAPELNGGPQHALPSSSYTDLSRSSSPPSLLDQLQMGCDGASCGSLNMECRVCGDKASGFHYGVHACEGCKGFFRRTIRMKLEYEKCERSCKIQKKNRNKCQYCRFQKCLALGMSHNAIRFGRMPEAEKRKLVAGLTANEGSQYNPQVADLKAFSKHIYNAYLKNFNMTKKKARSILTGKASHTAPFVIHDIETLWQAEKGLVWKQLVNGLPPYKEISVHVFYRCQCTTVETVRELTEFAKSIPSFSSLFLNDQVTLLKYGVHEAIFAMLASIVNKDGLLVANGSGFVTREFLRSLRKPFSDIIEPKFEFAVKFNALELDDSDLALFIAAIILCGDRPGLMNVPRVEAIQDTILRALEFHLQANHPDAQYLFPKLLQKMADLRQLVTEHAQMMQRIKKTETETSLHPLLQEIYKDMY

[3] = molecular target: T3, ASAL (from S. aureus) (Staphylococcus aureus, UniProt Q2FIB5); experiment: surface plasmon resonance (Biacore T200, CM5 chip, immobilised protein); format: binding; conditions: read-out: affinity constant
T3 construct: gene argH; immobilised on CM5 chip
T3 sequence (Q2FIB5 1-459): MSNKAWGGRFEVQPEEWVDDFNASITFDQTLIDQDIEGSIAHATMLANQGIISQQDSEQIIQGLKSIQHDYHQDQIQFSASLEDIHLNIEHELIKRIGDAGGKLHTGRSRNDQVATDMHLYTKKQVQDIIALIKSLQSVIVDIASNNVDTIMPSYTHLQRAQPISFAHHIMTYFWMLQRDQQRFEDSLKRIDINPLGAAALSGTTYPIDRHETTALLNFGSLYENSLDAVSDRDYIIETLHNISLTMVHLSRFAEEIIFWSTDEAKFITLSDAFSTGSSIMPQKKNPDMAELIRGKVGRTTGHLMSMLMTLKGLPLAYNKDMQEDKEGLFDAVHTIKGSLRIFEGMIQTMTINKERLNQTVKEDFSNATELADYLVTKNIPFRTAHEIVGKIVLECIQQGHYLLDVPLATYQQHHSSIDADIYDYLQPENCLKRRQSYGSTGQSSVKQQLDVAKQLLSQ

T1 sequence (O14842 whole entry): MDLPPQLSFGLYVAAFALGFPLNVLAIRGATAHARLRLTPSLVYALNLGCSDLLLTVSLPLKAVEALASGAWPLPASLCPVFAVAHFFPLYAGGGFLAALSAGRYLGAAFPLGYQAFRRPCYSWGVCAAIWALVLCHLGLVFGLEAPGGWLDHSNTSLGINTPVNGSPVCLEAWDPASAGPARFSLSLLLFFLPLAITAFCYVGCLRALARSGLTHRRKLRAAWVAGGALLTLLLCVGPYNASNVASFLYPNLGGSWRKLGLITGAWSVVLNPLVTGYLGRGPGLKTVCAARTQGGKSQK

Q: Which “cellular thermal shift assay (CETSA), Western blot” value [1] does the source give for `Cc1nc(-c2ccc(C(F)(F)F)cc2)sc1COc1ccc2c(c1)OC[C@H]2CC(=O)O` [ZLY032] here?
A: The value was “ZLY032 had direct binding ability with FFA1 and PPARδ (Figure S11, Supporting Information)”.

Q: What about the “cellular thermal shift assay (CETSA), Western blot” value [2] of the same compound?
A: The value was “ZLY032 had direct binding ability with FFA1 and PPARδ (Figure S11, Supporting Information)”.

Q: And the Kd [3]?
A: Its Kd is 10.9 µM.
